This note sets out measurements from patent US20260317324A1, “BIFUNCTIONAL COMPOUNDS FOR DEGRADING BRAF VIA UBIQUITIN PROTEOSOME PATHWAY” (Nurix Therapeutics, Inc., priority 2023, published 2026).

A word on the DC50: it is the midpoint of the concentration-degradation curve. Read a high DC50 as degradation only at high concentration. The term Dmax denotes the largest share of the target that was removed. Low values mean a partial loss of target, high ones a fuller loss of target.

What all share (format): cell-based
The target in assay [1] is T1, BRAF G469A (Homo sapiens, UniProt P15056, G469A).
T1 construct: Horizon Discovery (HCT-116 BRAF−/− cells); host or cells: HCT-116 BRAF−/− cells, clone 34, lentiviral transduction
T1 sequence (P15056 whole entry G469A): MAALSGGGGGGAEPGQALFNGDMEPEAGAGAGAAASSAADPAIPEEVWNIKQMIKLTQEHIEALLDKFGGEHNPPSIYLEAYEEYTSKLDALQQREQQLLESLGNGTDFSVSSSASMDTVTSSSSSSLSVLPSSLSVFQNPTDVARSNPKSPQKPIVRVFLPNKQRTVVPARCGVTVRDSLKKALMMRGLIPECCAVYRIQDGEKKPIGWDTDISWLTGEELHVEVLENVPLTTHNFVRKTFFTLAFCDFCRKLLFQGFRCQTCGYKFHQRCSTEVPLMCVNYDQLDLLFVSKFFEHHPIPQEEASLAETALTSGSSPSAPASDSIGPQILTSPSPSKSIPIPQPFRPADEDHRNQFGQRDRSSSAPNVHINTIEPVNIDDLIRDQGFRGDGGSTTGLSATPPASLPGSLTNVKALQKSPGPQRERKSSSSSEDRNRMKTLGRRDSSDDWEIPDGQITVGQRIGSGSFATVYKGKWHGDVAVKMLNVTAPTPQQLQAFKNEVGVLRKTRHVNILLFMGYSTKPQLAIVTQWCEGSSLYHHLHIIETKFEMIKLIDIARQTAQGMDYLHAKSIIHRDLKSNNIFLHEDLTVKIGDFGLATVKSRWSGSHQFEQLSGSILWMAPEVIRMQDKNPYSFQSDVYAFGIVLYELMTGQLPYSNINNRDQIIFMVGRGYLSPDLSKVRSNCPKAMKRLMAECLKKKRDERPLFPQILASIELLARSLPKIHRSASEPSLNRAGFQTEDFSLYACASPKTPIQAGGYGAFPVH
As to the kind of experiment: BRAF HiBiT degradation assay, C-terminal HiBiT-tagged BRAF G469A overexpressed in HCT-116 BRAF−/− cells (clone 34), Nano-Glo HiBiT Lytic assay. In short, it runs like this:
(§1)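 First, the stable HiBiT-tagged cells were plated and incubated for 24 h. Next, compound was added in duplicate as an 11-point series with a 1 μM top concentration. Lytic detection followed, with DMSO-treated parental cells used for background. Finally, DC50 and Obs. Dmax relative to DMSO were derived from the % protein remaining curves.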
Background: The HiBiT peptide binds its large partner to form an active luciferase.

The target of assay [2] is T2, BRAF V600E (Homo sapiens, UniProt P15056, V600E).
T2 construct: endogenous C-terminal HiBiT fusion tag on BRAF V600E allele; endogenous in cells; host or cells: A375 clone 1F10 (CRISPR-Cas9 knock-in of the HiBiT tag; parental A375 from ATCC)
T2 sequence (P15056 whole entry V600E, the tested form may be a part): as the sequence (P15056 whole entry G469A) above, with A469G, V600E counted along it
As to the kind of experiment: BRAF HiBiT degradation assay, C-terminal HiBiT-tagged BRAF V600E A375 cells (clone 1F10), Nano-Glo HiBiT Lytic assay. The settings on record: for Dmax: A-375. The method, boiled down: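 Degradation is measured as loss of HiBiT signal from BRAF V600E tagged at its native locus in A375 cells. Doses span 1 μM to 0.01 nM in half-log steps, in duplicate. Percent remaining is calculated against DMSO controls after subtracting untagged A375 background, and curve fitting yields DC50 and observed Dmax.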

The target in assay [3] is T3, BRAF D594G (Homo sapiens, UniProt P15056, D594G).
T3 construct: Horizon Discovery (HCT-116 BRAF−/− cells); host or cells: HCT-116 BRAF−/− cells, clone 63, lentiviral transduction
T3 sequence (P15056 whole entry D594G): as the sequence (P15056 whole entry G469A) above, with A469G, D594G counted along it
As to the kind of experiment: BRAF HiBiT degradation assay, C-terminal HiBiT-tagged BRAF D594G overexpressed in HCT-116 BRAF−/− cells (clone 63), Nano-Glo HiBiT Lytic assay. In short, it runs like this:
as §1

Assay [4] deals with T4, BRAF G466V (Homo sapiens, UniProt P15056, G466V).
T4 construct: Horizon Discovery (HCT-116 BRAF−/− cells); host or cells: HCT-116 BRAF−/− cells, clone 8, lentiviral transduction
T4 sequence (P15056 whole entry G466V): as the sequence (P15056 whole entry G469A) above, with G466V, A469G counted along it
As to the kind of experiment: BRAF HiBiT degradation assay, C-terminal HiBiT-tagged BRAF G466V overexpressed in HCT-116 BRAF−/− cells (clone 8), Nano-Glo HiBiT Lytic assay. In short, it runs like this:
as §1

The mark [5] stands for this setting: BRAF G469A (Class 2), HCT-116 BRAF−/− cells, DC50 at 50% degradation.
[6] abbreviates: BRAF G469A (Class 2), HCT-116 BRAF−/− cells, observed Dmax relative to DMSO control.
The mark [7] stands for this setting: A375 (BRAF V600E, Class 1), DC50 at 50% degradation.
[8] abbreviates: A375 (BRAF V600E, Class 1), observed Dmax, % protein degraded relative to DMSO control.
Where [9] appears, read: BRAF D594G (Class 3), HCT-116 BRAF−/− cells, DC50 at 50% degradation.
Where [10] appears, read: BRAF D594G (Class 3), HCT-116 BRAF−/− cells, observed Dmax relative to DMSO control.
[11] abbreviates: BRAF G466V (Class 3), HCT-116 BRAF−/− cells, DC50 at 50% degradation.
Setting [12] is: BRAF G466V (Class 3), HCT-116 BRAF−/− cells, observed Dmax relative to DMSO control.
Where [13] appears, read: Class 2, BRAF G469A, DC50 at 50%: fitted conc. at Y=50.
The mark [14] stands for this setting: HCT-116, Class 2, BRAF G469A, percentage protein degraded at maximal compound effect relative to DMSO.
Setting [15] is: A375 (BRAF V600E), DC50 at 50%: fitted conc. at Y=50.
The mark [16] stands for this setting: A375 (BRAF V600E), percentage protein degraded at maximal compound effect relative to DMSO.
The mark [17] stands for this setting: BRAF D594G, DC50 at 50%: fitted conc. at Y=50.
[18] abbreviates: HCT-116, BRAF D594G, percentage protein degraded at maximal compound effect relative to DMSO.
Setting [19] is: BRAF G466V, DC50 at 50%: fitted conc. at Y=50.
[20] abbreviates: HCT-116, BRAF G466V, percentage protein degraded at maximal compound effect relative to DMSO.

For the molecule `C[C@@H]1CN(c2ccc(-n3cc(-c4cc(Cl)cc(NS(=O)(=O)N5CCCC5)c4F)c(-c4ccncc4)n3)nc2)CCN1CC1CCN(c2ccc([C@H]3CCC(=O)NC3=O)cc2)CC1` [Compound 326, N-[5-chloro-3-(1-{5-[(3R)-4-[(1-{4-[(3R)-2,6-dioxopiperidin-3-yl]phenyl}piperidin-4-yl)methyl]-3-methylpiperazin-1-yl]pyridin-2-yl}-3-(pyridin-4-yl)-1H-pyrazol-4-yl)-2-fluorophenyl]pyrrolidine-1-sulfonamide], the 50% degradation concentration (DC50) is 10 to 50 nM in assay [1] (setting [5]), less than 10 nM in assay [2] (setting [7]), less than 10 nM in assay [3] (setting [9]) and less than 10 nM in assay [4] (setting [11]). The Dmax was 30 to 70% in assay [1] (setting [6]), greater than 70% in assay [2] (setting [8]), greater than 70% in assay [3] (setting [10]) and greater than 70% in assay [4] (setting [12]).
Take `CCCS(=O)(=O)Nc1cccc(-c2nc(C(C)(C)C)sc2-c2ccnc(Nc3ccc(C4CCN(CC[C@H]5CCN(c6ccc(C7CCC(=O)NC7=O)cn6)C5)CC4)cc3)n2)c1F` (mixture of isomers) [Compound 173, N-{3-[2-tert-butyl-5-(2-{[4-(1-{2-[(3S)-1-{5-[(3RS)-2,6-dioxopiperidin-3-yl]pyridin-2-yl}pyrrolidin-3-yl]ethyl}piperidin-4-yl)phenyl]amino}pyrimidin-4-yl)-1,3-thiazol-4-yl]-2-fluorophenyl}propane-1-sulfonamide]: the DC50 in assay [1] (setting [13]) is greater than 500 nM; in assay [2] (setting [15]) it was 10 to 50 nM; in assay [3] (setting [17]) it was greater than 500 nM; in assay [4] (setting [19]), greater than 500 nM. Moreover, the Dmax in assay [1] (setting [14]) was less than 30%; in assay [2] (setting [16]), greater than 70%; in assay [3] (setting [18]), 30 to 70%; in assay [4] (setting [20]), 30 to 70%.
`O=C1CCC(c2ccc(N3CCC(CN4CCN(c5ccc(-n6cc(-c7cc(Cl)cc(NS(=O)(=O)C8CCCC8)c7F)c(-c7ccncc7)n6)cc5)CC4)CC3)nc2)C(=O)N1` (racemic) [Compound 373, Rac-N-{5-chloro-3-[1-(4-{4-[(1-{5-[(3R)-2,6-dioxopiperidin-3-yl]pyridin-2-yl}piperidin-4-yl)methyl]piperazin-1-yl}phenyl)-3-(pyridin-4-yl)-1H-pyrazol-4-yl]-2-fluorophenyl}cyclopentanesulfonamide]: the DC50 in assay [1] (setting [5]) was 10 to 50 nM; in assay [2] (setting [7]), less than 10 nM; in assay [3] (setting [9]) it was less than 10 nM; in assay [4] (setting [11]), less than 10 nM. Also, the greatest degradation seen (Dmax) in assay [1] (setting [6]), in assay [2] (setting [8]), in assay [3] (setting [10]) and in assay [4] (setting [12]) was greater than 70% each time.
Consider `CCCS(=O)(=O)Nc1cccc(-c2nc(C(C)(C)C)sc2-c2ccnc(Nc3ccc(C4CCN(C(=O)C[C@H]5CCN(c6ccc(C7CCC(=O)NC7=O)cc6)C5)CC4)cc3)n2)c1F` (mixture of isomers) [Compound 165, N-{3-[2-tert-butyl-5-(2-{[4-(1-{2-[(3R)-1-{4-[(3RS)-2,6-dioxopiperidin-3-yl]phenyl}pyrrolidin-3-yl]acetyl}piperidin-4-yl)phenyl]amino}pyrimidin-4-yl)-1,3-thiazol-4-yl]-2-fluorophenyl}propane-1-sulfonamide], for which the half-maximal degradation concentration (DC50) in assay [1] (setting [13]) is greater than 500 nM; in assay [2] (setting [15]), 10 to 50 nM; in assay [3] (setting [17]), greater than 500 nM; in assay [4] (setting [19]) it was greater than 500 nM. For the same molecule, the Dmax was less than 30% in assay [1] (setting [14]), 30 to 70% in assay [2] (setting [16]), less than 30% in assay [3] (setting [18]) and less than 30% in assay [4] (setting [20]).
Take `O=C1CCC(c2ccc(N3CCC(CN4CCN(c5ccc(-n6cc(-c7cc(Cl)cc(NS(=O)(=O)N8CCCC8)c7F)c(-c7ccncc7)n6)cc5)CC4)CC3)cc2F)C(=O)N1` (racemic) [Compound 348, Rac-N-{5-chloro-3-[1-(4-{4-[(1-{4-[(3R)-2,6-dioxopiperidin-3-yl]-3-fluorophenyl}piperidin-4-yl)methyl]piperazin-1-yl}phenyl)-3-(pyridin-4-yl)-1H-pyrazol-4-yl]-2-fluorophenyl}pyrrolidine-1-sulfonamide]: the 50% degradation concentration (DC50) in assay [1] (setting [5]) was 10 to 50 nM; in assay [2] (setting [7]), less than 10 nM; in assay [3] (setting [9]) it was less than 10 nM; in assay [4] (setting [11]), less than 10 nM. Besides, the Dmax in assay [1] (setting [6]) was 30 to 70%; in assay [2] (setting [8]), greater than 70%; in assay [3] (setting [10]) it was 30 to 70%; in assay [4] (setting [12]), greater than 70%.
For the molecule `CCCS(=O)(=O)Nc1cccc(-c2nc(C(C)(C)C)sc2-c2ccnc(Nc3cnn(CC4CCN(C(=O)CN5CCC(c6ccc(NC7CCC(=O)NC7=O)cc6)CC5)CC4)c3)n2)c1F` (racemic) [Compound 116, Rac-N-(3-{2-tert-butyl-5-[2-({1-[(1-{2-[4-(4-{[(3R)-2,6-dioxopiperidin-3-yl]amino}phenyl)piperidin-1-yl]acetyl}piperidin-4-yl)methyl]-1H-pyrazol-4-yl}amino)pyrimidin-4-yl]-1,3-thiazol-4-yl}-2-fluorophenyl)propane-1-sulfonamide], the 50% degradation concentration (DC50) in assay [1] (setting [13]) is greater than 500 nM; in assay [2] (setting [15]) it was 10 to 50 nM; in assay [3] (setting [17]), greater than 500 nM; in assay [4] (setting [19]), greater than 500 nM. Moreover, the Dmax was less than 30% in assay [1] (setting [14]), greater than 70% in assay [2] (setting [16]), less than 30% in assay [3] (setting [18]) and 30 to 70% in assay [4] (setting [20]).
On to `CCCS(=O)(=O)Nc1cccc(-c2nc(C(C)(C)C)sc2-c2ccnc(Nc3cnn(CC4CCN(C(=O)[C@@H]5CCN(c6ccc(C7CCC(=O)NC7=O)cn6)C5)CC4)c3)n2)c1F` (mixture of isomers) [Compound 114, N-{3-[2-tert-butyl-5-(2-{[1-({1-[(3R)-1-{5-[(3RS)-2,6-dioxopiperidin-3-yl]pyridin-2-yl}pyrrolidine-3-carbonyl]piperidin-4-yl}methyl)-1H-pyrazol-4-yl]amino}pyrimidin-4-yl)-1,3-thiazol-4-yl]-2-fluorophenyl}propane-1-sulfonamide], for which the DC50 in assay [1] (setting [13]) was greater than 500 nM; in assay [2] (setting [15]), 10 to 50 nM; in assay [3] (setting [17]), greater than 500 nM; in assay [4] (setting [19]) it was greater than 500 nM. Moreover, the Dmax is less than 30% in assay [1] (setting [14]), greater than 70% in assay [2] (setting [16]), 30 to 70% in assay [3] (setting [18]) and less than 30% in assay [4] (setting [20]).
On to `CCCS(=O)(=O)Nc1cccc(-c2nc(C(C)(C)C)sc2-c2ccnc(Nc3cccc(C4CCN(CC5CCN(c6ccc7c(=O)n(C8CCC(=O)NC8=O)ccc7c6)CC5)CC4)c3)n2)c1F` (racemic) [Compound 76, Rac-N-[3-(2-tert-butyl-5-{2-[(3-{1-[(1-{2-[(3R)-2,6-dioxopiperidin-3-yl]-1-oxo-1,2-dihydroisoquinolin-6-yl}piperidin-4-yl)methyl]piperidin-4-yl}phenyl)amino]pyrimidin-4-yl}-1,3-thiazol-4-yl)-2-fluorophenyl]propane-1-sulfonamide], for which the DC50 is greater than 500 nM in assay [1] (setting [13]), 10 to 50 nM in assay [2] (setting [15]), greater than 500 nM in assay [3] (setting [17]) and greater than 500 nM in assay [4] (setting [19]). In addition, the greatest degradation seen (Dmax) in assay [1] (setting [14]) was less than 30%; in assay [2] (setting [16]) it was 30 to 70%; in assay [3] (setting [18]) it was less than 30%; in assay [4] (setting [20]), less than 30%.
As for `C[C@@H]1CN(c2ccc(-n3cc(-c4cc(Cl)cc(NS(=O)(=O)N5CCCC5)c4F)c(-c4ccncc4)n3)cc2)CCN1CC1CCN(c2ccc(C3CCC(=O)NC3=O)cn2)CC1` (mixture of isomers) [Compound 268, N-(5-chloro-3-(1-(4-((R)-4-((1-(5-((RS)-2,6-dioxopiperidin-3-yl)pyridin-2-yl)piperidin-4-yl)methyl)-3-methylpiperazin-1-yl)phenyl)-3-(pyridin-4-yl)-1H-pyrazol-4-yl)-2-fluorophenyl)pyrrolidine-1-sulfonamide], the half-maximal degradation concentration (DC50) in assay [1] (setting [5]), in assay [2] (setting [7]), in assay [3] (setting [9]) and in assay [4] (setting [11]) was less than 10 nM throughout. Also, the Dmax in assay [1] (setting [6]), in assay [2] (setting [8]), in assay [3] (setting [10]) and in assay [4] (setting [12]) was greater than 70% each time.
